Assay results taken from patent US9115101B2 (Genentech, Inc., priority 2012, dated 2015).
pIC50: −log10 of the molar value. Like-named read-outs stand apart in the source and are kept apart here.

Target: T1, RORc ligand binding domain (Homo sapiens, UniProt P51449)
T1 construct: host or cells: E. coli
T1 sequence (P51449 269-508 limits assumed): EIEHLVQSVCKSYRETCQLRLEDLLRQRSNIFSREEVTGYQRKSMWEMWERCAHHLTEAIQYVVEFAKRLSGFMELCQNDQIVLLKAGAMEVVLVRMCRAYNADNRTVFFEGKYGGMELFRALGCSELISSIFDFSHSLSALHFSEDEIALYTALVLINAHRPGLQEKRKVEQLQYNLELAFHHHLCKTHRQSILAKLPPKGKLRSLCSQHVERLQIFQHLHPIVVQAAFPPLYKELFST
Test: In Vitro RORc Ligand Binding Assay (25-[3H]hydroxycholesterol radioligand filtration)
Conditions: read-out: RORc IC50

[1] = In Vitro RORc Ligand Binding Assay, Table 4

Structure (SMILES)	pIC50 [1]	pIC50
COc1cc(N2CCN(C(C)=O)CC2)ccc1CN1[C@@H](C)CCC(c2ccccc2)S1(=O)=O (single isomer, unassigned) [Example 159]	5.79	–
C[C@H]1CCC(c2ccccc2)S(=O)(=O)N1Cc1ccc(N2CCC(C#N)CC2)cc1F (single isomer, unassigned) [Example 87]	6.70	–
C[C@H]1CCC(c2ccccc2)S(=O)(=O)N1Cc1ccc(N2CCN(C3=CC(=O)CCC3)CC2)cc1F (stereo partly drawn) [Example 188, 3-{4-[3-Fluoro-4-((3S)-3-methyl-1,1-dioxo-6-phenyl-[1,2]thiazinan-2-ylmethyl)-phenyl]-piperazin-1-yl}-cyclohex-2-enone]	6.97	–
C[C@H]1CCC(c2ccccc2)S(=O)(=O)N1Cc1ccc(N2CCC(c3n[nH]c(=O)o3)CC2)cc1F (single isomer, unassigned) [Example 143]	7.36	–
CC(=O)N1CCN(c2ccc(CN3CCCC(c4ccc(F)cc4)S3(=O)=O)c(F)c2)CC1 (single isomer, unassigned) [Example 11, 1-(4-{3-Fluoro-4-[6-(4-fluoro-phenyl)-1,1-dioxo-[1,2]thiazinan-2-ylmethyl]-phenyl}-piperazin-1-yl)-ethanone]	6.90	–
C[C@H]1CCC(c2ccccc2)S(=O)(=O)N1Cc1ccc(N2CCn3cnnc3C2)cc1F (single isomer, unassigned) [Example 148]	5.80	–
CC(=O)N1CCN(c2ccc(CN3CCCC(c4ccccc4)S3(=O)=O)c(F)c2)CC1 (single isomer, unassigned) [Example 2]	6.80	–
O=S1(=O)C(c2ccccc2)CC2(CC2)CN1Cc1ccc(N2CCC(n3cnnc3)CC2)cc1F (single isomer, unassigned) [Example 257, 5-[2-Fluoro-4-(4-[1,2,4]triazol-4-yl-piperidin-1-yl)-benzyl]-7-phenyl-6-thia-5-aza-spiro[2.5]octane 6,6-dioxde]	7.27	–
C[C@H]1CCC(c2ccccc2)S(=O)(=O)N1Cc1ccc(N2CCC(n3ccnn3)CC2)cc1F (single isomer, unassigned) [Example 218]	7.96	–
C[C@H]1CCC(c2ccccc2)S(=O)(=O)N1Cc1ccc(OC2CCN(S(C)(=O)=O)CC2)nc1 (single isomer, unassigned) [Example 34]	6.16	–
C[C@H]1CCC(c2ccccc2)S(=O)(=O)N1Cc1ccc(N2CCNCC2)cc1F (single isomer, unassigned) [Example 96]	5.35	–
COC(=O)[C@H]1CN(c2ccc(CN3[C@@H](C)CCC(c4ccccc4)S3(=O)=O)c(F)c2)CCN1C(C)=O (stereo partly drawn) [Example 260, 1-Acetyl-4-[3-fluoro-4-((3S)-methyl-1,1-dioxo-6-phenyl-[1,2]thiazinan-2-ylmethyl)-phenyl]-piperazine-2-carboxylic acid methyl ester]	7.51	–
CC(=O)N1CCN(c2ccc(CN3CC4(CC4)CC(c4ccccc4)S3(=O)=O)c(F)c2)CC1 (single isomer, unassigned) [Example 196, 1-{4-[4-(6,6-Dioxo-7-phenyl-6-thia-5-aza-spiro[2.5]oct-5-ylmethyl)-3-fluoro-phenyl]-piperazin-1-yl}-ethanone]	6.72	–
CC(=O)N1CCN(c2ccc(CN3[C@@H](C)CCC(c4ccc(C)cc4)S3(=O)=O)c(F)c2)CC1 (single isomer, unassigned) [Example 184]	7.01	–
CC(=O)N1CCN(c2ccc(CN3C4CCCC4CC(c4ccccc4)S3(=O)=O)c(F)c2)CC1 (single isomer, unassigned) [Example 252, 1-(4-(4-((2,2-dioxido-3-phenylhexahydro-cyclopenta[c][1,2]thiazin-1(3H)-yl)methyl)-3-fluorophenyl)piper-azin-1-yl)ethanone]	7.17	–
CC(=O)N1CCN(c2ccc(CN3[C@@H](C)CCC(c4ccccc4)S3(=O)=O)cc2C)CC1 (single isomer, unassigned) [Example 129]	6.36	–
CC(=O)N1CCN(c2ccc(CN3C[C@@H](C)CC(c4ccccc4)S3(=O)=O)c(F)c2)CC1 (single isomer, unassigned) [Example 197]	6.45	–
CC(=O)N1CCN(c2ccc(CN3[C@@H](C)CCC(c4ccccc4C)S3(=O)=O)c(F)c2)CC1 (single isomer, unassigned) [Example 205]	6.51	–
C[C@@H]1CCC(c2ccccc2)S(=O)(=O)N1Cc1ccc(OC2CCN(S(C)(=O)=O)CC2)cc1 (stereo partly drawn) [Example 52, (3R)-3-Methyl-2-(4-((1-(methylsulfonyl)piperidin-4-yl)oxy)benzyl)-6-phenyl-1,2-thiazinane 1,1-dioxide]	7.70	–
COc1cc(CN2[C@@H](C)CCC(c3ccccc3)S2(=O)=O)ccc1N1CCN(C(C)=O)CC1 (single isomer, unassigned) [Example 162]	6.09	–
C[C@H]1CCC(c2ccccc2)S(=O)(=O)N1Cc1ccc(C(=O)NC2CCOCC2)cc1 (single isomer, unassigned) [Example 267]	5.55	–
CC(=O)N1CCN(c2ccc(CN3[C@@H](C)CCC(c4ccccc4)S3(=O)=O)c(F)c2)C[C@@H]1C(=O)O (stereo partly drawn) [Example 261, 1-Acetyl-4-[3-fluoro-4-((3S)-methyl-1,1-dioxo-6-phenyl-[1,2]thiazinan-2-ylmethyl)-phenyl]-piperazine-2-carboxylic acid]	6.42	–

The next lines start with the values.

pIC50 [1]	pIC50	Structure (SMILES)
6.22	–	C[C@H]1CCC(c2ccccc2)S(=O)(=O)N1Cc1ccc(C(=O)NC2CN(S(C)(=O)=O)C2)cc1 (stereo partly drawn) [Example 387, N-(1-Methanesulfonyl-azetidin-3-yl)-4-((3S)-methyl-1,1-dioxo-6-phenyl-[1,2]thiazinan-2-ylmethyl)-benzamide]
–	7.49	C[C@H]1CCC(c2ccccc2)S(=O)(=O)N1Cc1ccc(N2CCN3C(=O)CC[C@H]3C2)cc1F (stereo partly drawn) [Example 419, (S)-2-[3-Fluoro-4-((3S)-methyl-1,1-dioxo-6-phenyl-[1,2]thiazinan-2-ylmethyl)-phenyl]-hexahydro-pyrrolo[1,2-a]pyrazin-6-one]
6.76	–	O=C(CO)N1CCN(c2ccc(CN3CCCCC(c4ccccc4)S3(=O)=O)cc2)CC1 (single isomer, unassigned) [Example 316, 1-{4-[4-(1,1-Dioxo-7-phenyl-[1,2]thiazepan-2-ylmethyl)-phenyl]-piperazin-1-yl}-2-hydroxy-ethanone]
–	6.37	C[C@H]1CCC(c2ccccc2)S(=O)(=O)N1Cc1ccc(N2CC3(CC(n4cnnc4)C3)C2)cc1F (stereo partly drawn) [Example 424, 2-[3-Fluoro-4-((3S)-methyl-1,1-dioxo-6-phenyl-[1,2]thiazinan-2-ylmethyl)-phenyl]-6-[1,2,4]triazol-4-yl-2-aza-spiro[3.3]heptane]
6.06	–	CCOC(=O)c1ncc2n1CCN(c1ccc(CN3[C@@H](C)CCC(c4ccccc4)S3(=O)=O)c(F)c1)C2 (stereo partly drawn) [Example 397, 7-[3-Fluoro-4-((3S)-methyl-1,1-dioxo-6-phenyl-[1,2]thiazinan-2-ylmethyl)-phenyl]-5,6,7,8-tetrahydro-imidazo[1,5-a]pyrazine-3-carboxylic acid ethyl ester]
–	5.73	C[C@H]1CCC(c2ccccc2)S(=O)(=O)N1Cc1ccc(C(=O)NC2CCC(O)C2)cc1 (single isomer, unassigned) [Example 409]
6.63	–	C[C@@H](O)C(=O)N1CCN(c2ccc(CN3CCCCC(c4ccccc4)S3(=O)=O)c(F)c2)CC1 (single isomer, unassigned) [Example 314, 1-{4-[4-(1,1-Dioxo-7-phenyl-[1,2]thiazepan-2-ylmethyl)-3-fluoro-phenyl]-piperazin-1-yl}-2-hydroxy-propan-1-one]
5.29	–	C[C@H]1CCC(c2ccccc2)S(=O)(=O)N1Cc1ccc(C(=O)NCCN2CCCCC2=O)cc1 (stereo partly drawn) [Example 277, 4-((3S)-Methyl-1,1-dioxo-6-phenyl-[1,2]thiazinan-2-ylmethyl)-N-[2-(2-oxo-piperidin-1-yl)-ethyl]-benzamide]
5.61	–	C[C@H]1CCC(c2ccccc2)S(=O)(=O)N1Cc1ccc(C(=O)NC2CCCC2O)cc1 (stereo partly drawn) [Example 270, N-(2-Hydroxy-cyclopentyl)-4-((3S)-methyl-1,1-dioxo-6-phenyl-[1,2]thiazinan-2-ylmethyl)-benzamide]
7.62	–	O=c1[nH]nc(C2CCN(c3ccc(CN4CCCCC(c5ccccc5)S4(=O)=O)cc3)CC2)o1 (single isomer, unassigned) [Example 337, 5-{1-[4-(1,1-Dioxo-7-phenyl-[1,2]thiazepan-2-ylmethyl)-phenyl]-piperidin-4-yl}-3H-[1,3,4]oxadiazol-2-one]
7.89	–	COC(=O)[C@@H]1CN(C(C)=O)CCN1c1ccc(CN2[C@@H](C)CCC(c3ccccc3)S2(=O)=O)c(F)c1 (stereo partly drawn) [Example 392, (S)-4-Acetyl-1-[3-fluoro-4-((3S)-methyl-1,1-dioxo-6-phenyl-[1,2]thiazinan-2-ylmethyl)-phenyl]-piperazine-2-carboxylic acid methyl ester]
7.35	–	N#CCC(=O)N1CCN(c2ccc(CN3CCCCC(c4ccccc4)S3(=O)=O)cc2)CC1 (single isomer, unassigned) [Example 310, 3-{4-[4-(1,1-Dioxo-7-phenyl-[1,2]thiazepan-2-ylmethyl)-phenyl]-piperazin-1-yl}-3-oxo-propionitrile]
–	6.00	C[C@H]1CCC(c2ccccc2)S(=O)(=O)N1Cc1ccc(N2CC3(CC(n4cnnc4)C3)C2)cc1F (stereo partly drawn) [Example 425, 2-[3-Fluoro-4-((3S)-methyl-1,1-dioxo-6-phenyl-[1,2]thiazinan-2-ylmethyl)-phenyl]-6-[1,2,4]triazol-4-yl-2-aza-spiro[3.3]heptane]
5.57	–	C[C@H]1CCC(c2ccccc2)S(=O)(=O)N1Cc1ccc(C(=O)N2CCN(C(=O)C3CC3)CC2)cc1 (stereo partly drawn) [Example 288, (4-Cyclopropane carbonyl-piperazin-1-yl)-[4-((3S)-methyl-1,1-dioxo-6-phenyl-[1,2]thiazinan-2-ylmethyl)-phenyl]-methanone]
